In assay [1] the target is T1, AhR (Homo sapiens, UniProt P35869).
T1 construct: PBMCs were isolated from human peripheral blood using Lymphoprep; endogenous in cells
T1 sequence (P35869 11-848): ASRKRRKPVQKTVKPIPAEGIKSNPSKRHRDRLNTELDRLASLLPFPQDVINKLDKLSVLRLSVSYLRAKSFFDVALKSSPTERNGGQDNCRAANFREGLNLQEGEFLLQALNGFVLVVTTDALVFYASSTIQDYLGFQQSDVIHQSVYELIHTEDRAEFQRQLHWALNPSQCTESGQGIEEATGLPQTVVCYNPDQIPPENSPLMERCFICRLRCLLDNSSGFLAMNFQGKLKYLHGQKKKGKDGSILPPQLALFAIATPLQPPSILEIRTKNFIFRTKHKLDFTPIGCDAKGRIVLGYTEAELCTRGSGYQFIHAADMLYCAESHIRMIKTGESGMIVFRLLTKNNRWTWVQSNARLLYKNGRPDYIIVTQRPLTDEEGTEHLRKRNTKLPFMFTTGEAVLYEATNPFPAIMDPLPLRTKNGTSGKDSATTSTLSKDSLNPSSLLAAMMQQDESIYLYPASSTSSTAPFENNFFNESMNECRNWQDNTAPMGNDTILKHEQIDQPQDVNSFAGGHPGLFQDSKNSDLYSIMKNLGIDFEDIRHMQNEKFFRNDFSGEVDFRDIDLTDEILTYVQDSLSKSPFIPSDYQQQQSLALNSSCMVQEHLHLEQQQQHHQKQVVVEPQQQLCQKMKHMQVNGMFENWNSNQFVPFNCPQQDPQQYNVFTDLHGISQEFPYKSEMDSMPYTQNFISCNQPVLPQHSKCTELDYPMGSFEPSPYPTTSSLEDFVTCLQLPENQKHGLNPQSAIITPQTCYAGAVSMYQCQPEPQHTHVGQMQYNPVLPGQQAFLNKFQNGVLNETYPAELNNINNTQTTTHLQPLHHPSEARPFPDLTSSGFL
The experiment in a line: AhR antagonism in human PBMCs - inhibition of interleukin-22 (IL-22) release. It is filed as cell-based. As to conditions: human PBMCs activated with CD3/CD28 agonist; IL-22 release after 72 hrs, against endogenously produced AhR agonists; arithmetic mean of two or more tests; read-out: PBMC Assay (pIC50) (converted). As for the experimental part: (§1) Examples were tested in selected biological assays two or more times. Data are reported as the arithmetic mean of the pIC50 (-log10IC50) values, where IC50 is defined as the concentration of compound producing a 50% inhibition of the agonist response. In the case of the U937 assay, VAF347 was used as the agonist; in the peripheral blood mononuclear cell (PBMC) assay the effects of the test compounds are assessed against endogenously produced AhR agonists generated following PBMC activation.
In Vitro Assay 2: AhR Antagonism in Human Peripheral Blood Mononuclear Cells (PBMCS) -Inhibition of Interleukin-22 (IL-22) Release
PBMCs were isolated from human peripheral blood using Lymphoprep™ and diluted to 1 × 10^6 cells per ml in RPMI media containing 10% foetal bovine serum, 1% penicillin-streptomycin and 1% non-essential amino acids. PBMCs were subsequently activated with 1 µl per 100,000 cells of a CD3/CD28 agonist mixture (human T Cell TransAct™(Miltenyi Biotec)) and then plated at 100,000 cells per well in a round bottom 96 well tissue culture plate. One hour after stimulation seven concentrations of each test compound or vehicle (final [DMSO] 0.2%) were added. The plates were then placed in an incubator at 37° C., ≥ 85% humidity, 5% CO2 for 72 hrs before the media was removed and stored at -20° C. until cytokine analysis. IL-22 was measured using human IL-22 DuoSet ELISA (R&D systems) according to the manufacturer’s instructions.

Assay [2] addresses T1, AhR. The assay is described as follows: AhR antagonism in U937 cells (Promega P450-Glo assay). It is filed as cell-based. The conditions noted are these: inhibition of 4.5 nM VAF347 agonist response, CYP1A1 activity (Luciferin-CEE) after 24 hrs, arithmetic mean of two or more tests, read-out: U937 Assay (pIC50) (converted). As for the experimental part: as §1
In Vitro Assay 1: AhR Antagonism in U937 Cells (Promega P450-Glo™ Assay)
AhR antagonism was assessed in U937 cells (myeloid lineage cell line derived from a human histiocytic lymphoma). Ligand binds the AhR in the cytoplasm, and the AhR-ligand complex translocates to the nucleus and forms a heterodimer with AhR nuclear translocator (Arnt). This complex binds the xenobiotic response element (XRE) in the 5′ upstream region of the CYP1A1 promoter, enhancing CYP1A1 expression. CYP1A1 activity is subsequently determined by assessing the conversion of Luciferin-CEE to luciferin, which in turn reacts with luciferase to produce light. The amount of light produced is directly proportional to cytochrome P450 activity.
U937 cells in Ultraculture serum free media (Lonza) were plated at 100,000 cells per well in a round bottom 96 well tissue culture plate. Seven concentrations of test compound (final [DMSO] 1%) were added and incubated for 10 minutes before the addition of 4.5 nM VAF347. The plates were then placed in an incubator at 37° C., ≥ 85% humidity, 5% CO2 for 24 hrs. After aspiration of the supernatant the CYP1A1 substrate Luciferin-CEE ([Final] 83 µM) was added and incubated for 3 hrs before the reaction was stopped by adding luciferin detection reagent and luminescence was read after 20 minutes.

Where a name gives a salt, the structure may show the parent alone.

In the case of `COc1cncc(-c2nc3c(c(NCCc4c[nH]c5ccccc45)n2)CCNC3)c1` [Example 9, N-[2-(1H-indol-3-yl)ethyl]-2-(5-methoxypyridin-3-yl)-5H,6H,7H,8H-pyrido[3,4-d]pyrimidin-4-amine], the figures for the IC50 at AhR [1] and on AhR [2] were 794 nM and 20 nM, respectively.
With `COc1ccc2[nH]c(C)c(CCNc3nc(-c4cncc(F)c4)nc4c3CCNC4)c2c1` [Example 14, 2-(5-Fluoropyridin-3-yl)-4-{[2-(5-Methoxy-2-Methyl-1H-Indol-3-yl)Ethyl]Amino}-5H,6H,7H,8H-Pyrido[3,4-d]Pyrimidin-7-ium Chloride], the IC50 on AhR [1] was 631 nM; on AhR [2] it was 100 nM.
For the compound `CCN1CCc2nc(-c3cncc(F)c3)nc(NCCc3c[nH]c4cc(OC)ccc34)c2CC1` [Example 15, 7-ethyl-2-(5-fluoropyridin-3-yl)-N-[2-(6-methoxy-1H-indol-3-yl)ethyl]-5H,6H,7H,8H,9H-pyrimido[4,5-d]azepin-4-amine], the IC50 on AhR [1] is 631 nM; at AhR [2], 158 nM.
Consider `COc1ccc2c(CCOc3nc(-c4cncc(F)c4)nc4c3CCNC4)c[nH]c2c1` [Example 17, 3-(2-{[2-(5-Fluoropyridin-3-yl)-5H,6H,7H,8H-Pyrido[3,4-d]Pyrimidin-4-yl]Oxy}Ethyl)-6-Methoxy-1H-Indole Hydrochloride], for which the IC50 at AhR [1] was 25.1 nM; at AhR [2], 50.1 nM.
The corresponding values for `COc1ccc2c(CCNc3nc(-c4cncc(F)c4)nc4c3CCNCC4)c[nH]c2c1` [Example 16, 2-(5-fluoropyridin-3-yl)-N-[2-(6-methoxy-1H-indol-3-yl)ethyl]-5H,6H,7H,8H,9H-pyrimido[4,5-d]azepin-4-amine] are 200 nM and 316 nM.
The corresponding values for `FC(F)(F)c1cncc(-c2nc3c(c(NCCc4c[nH]c5ccccc45)n2)CCNC3)c1` [Example 10, N-[2-(1H-indol-3-yl)ethyl]-2-[5-(trifluoromethyl)pyridin-3-yl]-5H,6H,7H,8H-pyrido[3,4-d]pyrimidin-4-amine] are 794 nM and 25.1 nM.
Regarding `Fc1cncc(-c2nc3c(c(NCCc4c(C(F)(F)F)[nH]c5ccccc45)n2)CCNC3)c1` [Example 18, 2-(5-Fluoropyridin-3-yl)-4-({2-[2-(Trifluoromethyl)-1H-Indol-3-yl]Ethyl}Amino)-5H,6H,7H,8H-Pyrido[3,4-d]Pyrimidin-7-ium Chloride], the values for the IC50 at AhR [1] and on AhR [2] were 316 nM and 20 nM, respectively.
The matching figures for `COc1ccc2c(CCNc3nc(-c4cncc(F)c4)nc4c3CCNC4)c[nH]c2c1` [Example 1, 2-(5-fluoropyridin-3-yl)-N-[2-(6-methoxy-1H-indol-3-yl)ethyl]-5H,6H,7H,8H-pyrido[3,4-d]pyrimidin-4-amine]: 126 nM and 126 nM.
Regarding `COc1ccc2c(CCNc3nc(-c4cncc(F)c4)nc4c3CNC4)c[nH]c2c1` [Example 5, 2-(5-fluoropyridin-3-yl)-N-[2-(6-methoxy-1H-indol-3-yl)ethyl]-5H,6H,7H-pyrrolo[3,4-d]pyrimidin-4-amine], the values for the IC50 at AhR [1] and at AhR [2] were 398 nM and 200 nM, respectively.

Source of the values: patent publication US20230279000A1, “PYRIDOPYRIMIDINE DERIVATIVES USEFUL IN MODULATION OF AHR SIGNALLING” (JAGUAHR THERAPEUTICS PTE LTD, priority 2020, published 2023).
